Values quoted from earlier work, collected in patent publication US20260033492A1, “Pest Repellents and Uses Thereof” (priority 2020, published 2026).

Assays:
[1] = target: acetylcholinesterase (Homo sapiens, UniProt P22303); conditions: in humans
[2] = in vivo
[3] = tested on: salamander larvae; conditions: in vivo
[4] = tested on: insects; conditions: in vivo

acetylcholinesterase, sequence (P22303 32-614): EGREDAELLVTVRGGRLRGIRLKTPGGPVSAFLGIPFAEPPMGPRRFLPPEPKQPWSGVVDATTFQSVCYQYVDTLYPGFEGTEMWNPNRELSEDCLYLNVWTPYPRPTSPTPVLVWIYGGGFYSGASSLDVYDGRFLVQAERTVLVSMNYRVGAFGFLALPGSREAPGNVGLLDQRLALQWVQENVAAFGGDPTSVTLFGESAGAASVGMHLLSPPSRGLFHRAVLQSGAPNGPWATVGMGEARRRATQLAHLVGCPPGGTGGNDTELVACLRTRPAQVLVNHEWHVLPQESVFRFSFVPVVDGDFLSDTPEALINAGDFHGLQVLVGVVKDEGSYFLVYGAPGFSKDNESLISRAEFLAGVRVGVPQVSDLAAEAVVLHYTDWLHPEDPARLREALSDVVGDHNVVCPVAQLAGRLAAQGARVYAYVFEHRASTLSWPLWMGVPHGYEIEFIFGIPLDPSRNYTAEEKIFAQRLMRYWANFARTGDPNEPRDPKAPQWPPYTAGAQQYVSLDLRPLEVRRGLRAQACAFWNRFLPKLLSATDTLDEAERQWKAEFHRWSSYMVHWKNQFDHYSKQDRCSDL

SMILES | inhibition of acetylcholinesterase [1] | irritancy / skin reactions [2] | toxicity to salamander larvae [3] | effectiveness at repelling insects relative to DEET [4]
CCN(CC)C(=O)c1cccc(C)c1 [DEET, N,N-diethyl-meta-toluamide] | inhibit acetylcholinesterase | act as an irritant |  | 
CCC(C)OC(=O)N1CCCCC1CCO (stereo not shown) [Icaridin] |  |  | toxic to salamander larvae | as effective as DEET
